Assay results taken from patent publication US11208386B2, “Inhibitors of protein arginine deiminases (PADs) and methods of preparation and use thereof” (University of Massachusetts, priority 2016, dated 2021).

Key:
[1] = cited from earlier work
PAD2 [2] = biological target: T1, PAD2 (Homo sapiens, UniProt Q9Y2J8); test: In vitro labeling of PAD2 with clickable probes to determine limit of detection; format: binding; conditions: probe clicked with TAMRA-N3
T1 construct: made in house
Description: In Vitro Labeling o f PAD2 with BB-F-Yne (5u) and BB-C-Yne (5v) to Determine their Limit of detection (LOD)
BB-F-Yne (5u) or BB-Cl-Yne (5v) (10 μM) were incubated with decreasing concentrations of recombinant PAD2 (1.0 to 0.025 μM) in the presence of CaCl2 in 1×PBS (2 mM) at 37° C. for 1 h. The probe labeled enzymes were coupled to TAMRA-N3 (20 μM) in the presence of 1×TBTA (0.31 mM), sodium ascorbate (2 mM) and freshly prepared CuSO4 (1 mM). The tubes were gently tumbled for 1 h. […] The bands were visualized by scanning the gel in a typhoon scanner (approximate excitation/emission maxima 546/579, respectively).

PAD4 = biological target: T2, PAD4 (Homo sapiens, UniProt Q9UM07); test: Inactivation kinetics, PAD4; format: biochemical; conditions: for kinact/KI: a: single kobs determined, b: from a linear fit; for Fold PAD4 Selectivity: kinact/KI relative to least inhibited isozyme (1.0)
T2 construct: made in house
T2 sequence (Q9UM07 whole entry): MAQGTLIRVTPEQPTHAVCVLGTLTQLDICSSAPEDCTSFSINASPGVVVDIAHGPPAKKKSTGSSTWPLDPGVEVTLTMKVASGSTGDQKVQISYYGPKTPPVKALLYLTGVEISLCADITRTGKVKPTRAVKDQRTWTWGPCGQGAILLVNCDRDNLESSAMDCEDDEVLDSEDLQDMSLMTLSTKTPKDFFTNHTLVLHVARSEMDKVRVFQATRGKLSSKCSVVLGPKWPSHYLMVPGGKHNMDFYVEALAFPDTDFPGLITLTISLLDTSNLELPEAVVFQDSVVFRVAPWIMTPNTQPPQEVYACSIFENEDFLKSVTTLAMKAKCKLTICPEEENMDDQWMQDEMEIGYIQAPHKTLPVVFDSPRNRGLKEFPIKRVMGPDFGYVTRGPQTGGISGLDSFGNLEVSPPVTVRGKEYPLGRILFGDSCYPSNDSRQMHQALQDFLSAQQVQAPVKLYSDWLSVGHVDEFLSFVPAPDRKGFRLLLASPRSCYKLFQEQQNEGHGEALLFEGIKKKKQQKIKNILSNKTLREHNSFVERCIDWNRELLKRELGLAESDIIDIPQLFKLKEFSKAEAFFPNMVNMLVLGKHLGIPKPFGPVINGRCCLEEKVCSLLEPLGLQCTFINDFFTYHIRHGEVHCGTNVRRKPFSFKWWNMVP
Outline: (§1)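 PAD1, 2 or 4 (2.0 μM) or PAD3 (5.0 μM) preincubated at 37 °C with varying inhibitor in 50 mM HEPES, 10 mM CaCl2, 2 mM DTT, pH 7.6. Timed aliquots assayed 15 min with 10 mM BAEE (BAA for PAD3); citrulline quantified by COLDER.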

PAD3 = biological target: T3, PAD3 (Homo sapiens, UniProt Q9ULW8); test: Inactivation kinetics, PAD3; format: biochemical; conditions: for kinact/KI: a: single kobs determined; for Fold PAD3 Selectivity: kinact/KI relative to least inhibited isozyme (1.0)
T3 construct: made in house
T3 sequence (Q9ULW8 1-664): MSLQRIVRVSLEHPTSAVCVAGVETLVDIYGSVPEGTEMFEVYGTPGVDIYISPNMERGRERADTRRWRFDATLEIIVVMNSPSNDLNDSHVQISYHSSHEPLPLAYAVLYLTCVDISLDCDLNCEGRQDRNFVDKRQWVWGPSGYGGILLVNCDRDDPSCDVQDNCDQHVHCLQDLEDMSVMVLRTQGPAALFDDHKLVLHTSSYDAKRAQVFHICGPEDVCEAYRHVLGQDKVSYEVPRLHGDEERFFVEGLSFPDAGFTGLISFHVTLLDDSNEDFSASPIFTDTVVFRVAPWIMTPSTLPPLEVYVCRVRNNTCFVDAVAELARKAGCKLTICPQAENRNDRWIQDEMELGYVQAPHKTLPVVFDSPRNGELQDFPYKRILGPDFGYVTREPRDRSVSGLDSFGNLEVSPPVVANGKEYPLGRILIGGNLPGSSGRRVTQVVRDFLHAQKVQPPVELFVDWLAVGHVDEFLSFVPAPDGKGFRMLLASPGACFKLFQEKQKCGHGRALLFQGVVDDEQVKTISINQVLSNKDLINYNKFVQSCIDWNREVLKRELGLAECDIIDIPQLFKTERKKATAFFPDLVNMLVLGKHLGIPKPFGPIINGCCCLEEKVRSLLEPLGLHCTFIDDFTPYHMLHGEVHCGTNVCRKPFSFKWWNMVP
Outline: as §1

PAD1 = biological target: T4, PAD1 (Homo sapiens, UniProt Q9ULC6); test: Inactivation kinetics, PAD1; format: biochemical; conditions: for kinact/KI: a: single kobs determined, b: from a linear fit; for Fold PAD1 Selectivity: kinact/KI relative to least inhibited isozyme (1.0)
T4 construct: made in house
T4 sequence (Q9ULC6 1-663): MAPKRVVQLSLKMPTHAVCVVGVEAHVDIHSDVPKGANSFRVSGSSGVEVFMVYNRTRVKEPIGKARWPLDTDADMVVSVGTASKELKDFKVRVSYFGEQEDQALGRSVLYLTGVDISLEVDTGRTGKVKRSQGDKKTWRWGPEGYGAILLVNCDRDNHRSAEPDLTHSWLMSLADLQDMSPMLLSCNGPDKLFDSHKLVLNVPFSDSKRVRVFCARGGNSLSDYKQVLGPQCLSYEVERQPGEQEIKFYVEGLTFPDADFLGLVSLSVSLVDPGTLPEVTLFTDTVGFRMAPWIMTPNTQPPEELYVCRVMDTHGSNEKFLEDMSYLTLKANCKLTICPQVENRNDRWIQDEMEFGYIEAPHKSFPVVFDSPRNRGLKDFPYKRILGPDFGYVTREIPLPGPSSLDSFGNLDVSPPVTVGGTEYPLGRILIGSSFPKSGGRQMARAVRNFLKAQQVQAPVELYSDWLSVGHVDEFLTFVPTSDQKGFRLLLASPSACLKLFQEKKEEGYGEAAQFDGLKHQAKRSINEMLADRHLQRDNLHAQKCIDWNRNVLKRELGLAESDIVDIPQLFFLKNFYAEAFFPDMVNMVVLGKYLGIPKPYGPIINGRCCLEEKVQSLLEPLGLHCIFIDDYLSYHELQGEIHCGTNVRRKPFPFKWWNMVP
Outline: as §1

PAD2 [3] = biological target: T1, PAD2; test: Inactivation kinetics, PAD2; format: biochemical; conditions: for kinact/KI: a: single kobs determined, b: from a linear fit, other footnotes: from kinact and KI; for Fold PAD2 Selectivity: kinact/KI relative to least inhibited isozyme (1.0)
Outline: as §1

T1 sequence (Q9Y2J8 whole entry): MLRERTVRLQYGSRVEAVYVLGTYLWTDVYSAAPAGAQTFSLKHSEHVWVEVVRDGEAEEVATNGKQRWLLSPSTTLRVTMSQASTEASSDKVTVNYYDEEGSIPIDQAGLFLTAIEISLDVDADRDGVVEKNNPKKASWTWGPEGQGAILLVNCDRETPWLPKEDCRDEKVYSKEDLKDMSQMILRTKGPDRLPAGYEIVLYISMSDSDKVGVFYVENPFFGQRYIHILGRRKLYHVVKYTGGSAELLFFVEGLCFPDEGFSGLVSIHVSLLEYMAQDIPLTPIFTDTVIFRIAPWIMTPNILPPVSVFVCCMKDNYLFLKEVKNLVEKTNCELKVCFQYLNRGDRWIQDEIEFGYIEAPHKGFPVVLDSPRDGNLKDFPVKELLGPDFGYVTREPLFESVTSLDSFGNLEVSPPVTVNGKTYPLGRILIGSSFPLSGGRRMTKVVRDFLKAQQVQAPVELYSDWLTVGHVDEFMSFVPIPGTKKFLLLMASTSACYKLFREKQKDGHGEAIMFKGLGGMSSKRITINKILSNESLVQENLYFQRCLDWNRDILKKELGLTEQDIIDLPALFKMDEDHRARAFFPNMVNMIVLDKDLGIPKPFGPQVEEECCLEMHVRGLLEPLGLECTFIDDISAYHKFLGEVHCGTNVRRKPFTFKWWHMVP

Compound | efficacy in animal models ([1]; rheumatoid arthritis, lupus, ulcerative colitis, spinal cord injury, breast cancer, atherosclerosis) | limit of detection (LOD) for PAD2 (PAD2 [2]) [fmol] | kinact/KI (PAD4) [M⁻¹ s⁻¹] | Fold PAD4 Selectivity (PAD4) [fold] | kinact/KI (PAD3) [M⁻¹ s⁻¹] | Fold PAD3 Selectivity (PAD3) [fold] | kinact/KI (PAD1) [M⁻¹ s⁻¹] | Fold PAD1 Selectivity (PAD1) [fold] | kinact/KI (PAD2 [3]) [M⁻¹ s⁻¹] | Fold PAD2 Selectivity (PAD2 [3]) [fold] | efficacy in an RA model ([1]; in vivo)
N=C(CCl)NCCC[C@H](NC(=O)c1ccccc1)C(N)=O [Cl-amidine] | demonstrated efficacy |  |  |  |  |  |  |  |  |  | 
C#Cc1ccc(-c2ccc(C(=O)N[C@@H](CCCNC(=N)CF)c3nc4ccccc4[nH]3)cc2)cc1 [Compound 5u, N1-4′-ethynyl-[1,1′-Phenyl]benzol-N5-(2-fluoro-1-iminoethyl)-1-(1H-benzo[d]imidazol-2-yl)-L-ornithine] |  | 375 | 29.5 | 1.8 | 17.1 | 1.1 | 77.5 | 4.8 | 16.2 | 1.0 | 
CCN1Cc2cccc(C(=O)N[C@@H](CCCNC(=N)CCl)c3nc4cc(OC)ccc4n3CC)c2C1=O [Compound 8z, N1-(2-ethyl-3-oxoisoindoline)benzoyl-N5-(2-chloro-1-iminoethyl)-1-(5-methoxy-1-ethyl-benzo[d]imidazol-2-yl)-L-ornithine] |  |  | 23.5 | 1.0 | 198 | 8.4 | 501 | 21 | 637 | 27 | 
Cn1c([C@H](CCCNC(=N)CF)NC(=O)c2ccccc2C(=O)OC(C)(C)C)nc2ccccc21 [Compound 9a, N1-(2-tert-butylcarboxy)benzoyl-N5-(2-fluoro-1-iminoethyl)-1-(1-methyl-benzo[d]imidazol-2-yl)-L-ornithine] |  |  | 40.5 | 2.0 | 20 | 1.0 | 41.2 | 2.1 | 40 | 2.0 | 
Cn1c([C@H](CCCNC(=N)CCl)NC(=O)c2ccccc2C(=O)OC(C)(C)C)nc2ccccc21 [Compound 9b, N1-(2-tert-butylcarboxy)benzol-N5-(2-chloro-1-iminoethyl)-1-(1-methyl-benzo[d]imidazol-2-yl)-L-ornithine] |  |  | 64.2 | 1.2 | 86.7 | 1.6 | 325 | 5.9 | 55.2 | 1.0 | 
CCn1c([C@H](CCCNC(=N)CF)NC(=O)c2ccccc2C(=O)OC(C)(C)C)nc2ccccc21 [Compound 9c, N1-(2-tert-butylcarboxy)benzoyl-N5-(2-fluoro-1-iminoethyl)-1-(1-ethyl-benzo[d]imidazol-2-yl)-L-ornithine] |  |  | 7.33 | 1.0 | 51.7 | 7.0 | 15.8 | 2.2 | 102 | 14 | 
CCn1c([C@H](CCCNC(=N)CCl)NC(=O)c2ccccc2C(=O)OC(C)(C)C)nc2ccccc21 [Compound 9d, N1-(2-tert-butylcarboxy)benzoyl-N5-(2-chloro-1-iminoethyl)-1-(1-ethyl-benzo[d]imidazol-2-yl)-L-ornithine] |  |  | 21.7 | 1.0 | 78.3 | 3.6 | 200 | 9.3 | 152 | 7.0 | 
CC(C)n1c([C@H](CCCNC(=N)CF)NC(=O)c2ccccc2C(=O)OC(C)(C)C)nc2ccccc21 [Compound 9e, N1-(2-tert-butylcarboxy)benzoyl-N5-(2-fluoro-1-iminoethyl)-1-(1-isopropyl-benzo[d]imidazol-2-yl)-L-omithine] |  |  | 2.67 | 1.0 | 35 | 13 | 23.7 | 8.9 | 50.2 | 19 | 
CC(C)n1c([C@H](CCCNC(=N)CCl)NC(=O)c2ccccc2C(=O)OC(C)(C)C)nc2ccccc21 [Compound 9f, N1-(2-tert-butylcarboxy)benzoyl-N5-(2-chloro-1-iminoethyl)-1-(1-isopropyl-benzo[d]imidazol-2-yl)-L-omithine] |  |  | 11.3 | 1.0 | 80 | 7.1 | 56 | 4.9 | 119 | 11 | 
GSK199 |  |  |  |  |  |  |  |  |  |  | shows efficacy
